Reference: patent publication US6429204B1, “Method of inhibiting cancer growth” (University of Miami, priority 1997, dated 2002)
“And” between values parts separate entries of the source, which are not always exact repeats. Identical values can stand only once. Blank lines part the entries; values can stand above or below the molecule they belong to.

Columns and labels:
gelatinase B (MMP-9) = assay: Gelatin zymography of conditioned media of TSU PR1 and MAT LyLu cells, MMP-9; type: cell-based; conditions: 48 hours, serum-free medium
Protocol: (§1) Next we examined whether CMT-3 and doxycycline differentially affect the production of two major classes of gelatinases: gelatinase A (MMP-2) and gelatinase B (MMP-9). Confluent cultures of TSU PR1 and MAT LyLu cells were incubated with various concentrations of doxycycline and CMT-3 for 48 hours in serum-free medium. The conditioned media were then analyzed for MMPs by zymography as described below.
(§2) Conditioned media were collected from the cultures that had been treated with doxycycline or CMT-3 for 2 days. Media were then incubated with SDS-gel electrophoresis sample buffer for 30 min at room temperature, and then analyzed by gel electrophoresis on SDS-polyacrylamide gel (8%) containing gelatin (1 mg/mL). Following electrophoresis, the gels were washed twice with 0.25% TRITON® X100 for 30 min each, and incubated for 18 hr at 37° C. in an MMP digestion buffer comprising 20 mM Tris-HCl, pH 7.4, containing 30 mM NaCl, 1 mM PMSF, 10 mM CaCl2, 2 μM ZnSO4, 0.005% Brij35, and 0.02 NaN3 (Lokeshwar 1993a). After incubation, the gels were briefly rinsed in distilled water and stained with 0.25% Coomassie brilliant blue R250 prepared in 40% isopropanol solution for 1 hr. Gels were destained with 7% acetic acid. the locations of MMPs in the gels were visible as clear areas on a blue background, indicative of digested gelatin.

[1] = test system: C8161 human melanoma cells; assay: In vitro invasion assay (MICS), laminin/collagen IV/gelatin matrix-coated filter; type: cell-based; conditions: 3, 20 and 50 μg/mL; for Percent Inhibition of invasive potential: 48 hr
Protocol: The in vitro invasive potentials of the control (DMSO only) and chemically-modified tetracycline treated cells were measured using a modified Boyden chamber as previously described (Membrane Invasion Culture System, MICS). An intervening barrier consisting of a polycarbonate filter containing 10 μm pores (Osmonics, Livermore, Calif.) coated with a defined matrix of human laminin/collagen IV/gelatin (Sigma, St. Louis, Mo.) was used for these studies. […] Doxycycline or individual CMTs were then added to different wells of the chamber at 3, 20 or 50 μg/mL 2 hr post-seeding and daily during the assay. After 48 hr, the cells were removed from the lower wells and the number of invasive cells was determined and compared to the original number of cells seeded into the upper wells. Where appropriate, data were corrected for proliferation during the period of the in vitro assay.

LNCAP cells = assay: Alamar Blue viability assay, LNCAP; type: cell-based, human
Source text: (§3) Several cancer cell lines and normal cells were examined in vitro to determine whether tetracycline compounds produce cytotoxic (cell killing) effects. A conventional assay for viability of cultured cells based on redox activity in the cells was employed (Pagé et al. 1993). The assay uses a redox dye Alamar Blue, which is a fluorogenic indicator dye that is converted to a fluorescent red product only when cells are carrying out electron transport activity, a widely accepted criterion of viability.
(§4) Cultured cells from three prostate tumor cell lines, LNCAP, DU-145, and PC-3, and normal prostate stromal cells obtained by biopsy of a normal person, were allowed to grow to confluence in multiwell microplates to minimize differences in proliferative activity among the cell types at the time of exposure to the test compound. CMT-3 was added to the wells at concentrations of 10 μM and 20 μM (50 μM also in the case of DU-145). At the start of the experiment, and again at 1, 2, and 3 days, selected wells were incubated with the indicator dye for 3 hr, and the fluorescence was measured on a Cytofluor 2300 fluorescent microplate reader.

E-10 Cells = assay: MTS cytotoxicity assay, E-10; conditions: two days
Protocol: (§7) A panel of chemically modified tetracycline compounds and doxycycline were tested for cytotoxicity against two carcinomas: COLO 205 (a human colon carcinoma-derived cell line) and the E-10 clone of MDA-MB-231 (a human breast carcinoma-derived cell line). Cytoxicity was measured using a conventional assay for viability with a tetrazolium salt (MTS). Cells were grown in media containing the CMTs at concentrations ranging from 5 μM to 100 μM for two days. The cells were then incubated with the MTS for several hours before removal of the supernatant medium for determination of formazan, which is generated only by the viable cells. Results are expressed as percent cytotoxicity, which is simply the percent decline in measured formazan concentration in the sampled medium.

[2] = test system: HIV-related Kaposi's Sarcoma; assay: Oral dose escalation study in patients with Kaposi's Sarcoma; type: in vivo, human
Protocol: CMT-3 was administered orally, once daily, in a dose escalating fashion to 3-6 subjects per dose cohort. Patients with symptomatic visceral Kaposi's Sarcoma or severe tumor-associated edema were excluded. Antiretroviral therapy was permitted but not required. Study endpoints were grade 3 or grade 4 toxicity or progression of disease. Preliminary analysis was performed. Eighteen patients received CMT-3 in dosing cohorts of 25, 50 and 70 mg/m^2/day. The average age was 39 years (range, 25-57). Median CD4 count was 352 cells/mm^3 (range, 6-694). Prior therapy for Kaposi's Sarcoma was reported by 16 (89%) patients; prior antiretroviral therapy by 16 (89%) patients. Half of the patients had ≧50 lesions at baseline. Grade 3 or higher events, which were possibly/definitely related to study drug, were reported by 6 patients and consisted of photosensitivity, increased pain, headache, rash and pruritis.

PC-3 tumor cells = assay: Alamar Blue viability assay, PC-3; type: cell-based, human
Source text: as §3, §4

gelatinase A (MMP-2) = assay: Gelatin zymography of conditioned media of TSU PR1 and MAT LyLu cells, MMP-2; type: cell-based; conditions: 48 hours, serum-free medium
Protocol: as §1, §2

COLO 205 Cells = assay: MTS cytotoxicity assay, COLO 205; conditions: two days
Protocol: as §7

TSU PR-1 = assay: Cytotoxicity GI50 (MTT and thymidine incorporation), TSU PR-1; type: cell-based; conditions: Homo sapiens, TSU-Pr1
Protocol: (§5) To confirm this observation, we compared the cytotoxicities of CMT-3 and doxycycline for a panel of common human prostate cancer cell lines. Cytotoxicity was measured using the MTT assay (see above) and a cellular thymidine incorporation assay as described by Lokeshwar et al. (1995a). The 50% growth inhibition (GI50) values obtained using both assays were identical. As shown in the data summarized in Table 3, below, CMT-3 was two- to eight-fold more cytotoxic than doxycycline.
(§6) Growth inhibition was calculated from linear regression of the dose-response curves generated for each experiment using log(dose) vs. cell proliferation (% of control). Correlation coefficient (r) was always ≧0.95 (negative). Results are presented as Mean±SEM of at least three GI50 values calculated from each experiment.

ALVA 101 = assay: Cytotoxicity GI50 (MTT and thymidine incorporation), ALVA 101; type: cell-based; conditions: Homo sapiens
Protocol: as §5, §6

DU-145 tumor cells = assay: Alamar Blue viability assay, DU-145; type: cell-based, human
Source text: as §3, §4

MAT LyLu = assay: Cytotoxicity GI50 (MTT and thymidine incorporation), MAT LyLu; type: cell-based; conditions: Rattus norvegicus
Protocol: as §5, §6

photosensitivity ([2]; 25 mg/m^2/day cohort): no photosensitivity was observed | Grade 3 or higher events possibly/definitely related to study drug ([2]; eighteen patients, 25, 50 and 70 mg/m^2/day): 6 patients
SMILES: NC(=O)C1=C(O)CC2CC3Cc4cccc(O)c4C(=O)C3=C(O)C2(O)C1=O (centres unmarked) [CMT-3, 6-demethyl-6-deoxy-4-de(dimethylamino)tetracycline]
MMP-9 levels in conditioned media (zymography) (gelatinase B (MMP-9)): decreased MMP-2 and MMP-9 levels at a lower concentration than did doxycycline | Type of Inhibition [1]: dose dependent | Percent Inhibition of invasive potential [1]: 35-74% | cytotoxicity (LNCAP cells; 10 μM, 24 hr): nearly complete | time to complete cytotoxicity (LNCAP cells; 20 μM): ≤ 24 h | percent cytotoxicity (E-10 Cells; 10 μM): 1.8% | percent cytotoxicity (E-10 Cells; 20 μM): 4.15% and 8.5% | Partial responses ([2]; 25 mg/m^2/day cohort): 2 patients | Partial responses ([2]; 50 mg/m^2/day cohort): 2 patients | Partial responses ([2]; 70 mg/m^2/day cohort): 3 patients | Partial responses ([2]; all cohorts, eighteen patients, oral once daily): 7 patients | tolerability ([2]; oral once daily, particularly 25 mg/m^2/day): well tolerated | cytotoxicity (PC-3 tumor cells; 24 hr): about 25% | cytotoxicity (PC-3 tumor cells; 48 hr): ~50% | cytotoxicity (PC-3 tumor cells; 72 hr): ~75% | MMP-2 levels in conditioned media (zymography) (gelatinase A (MMP-2)): decreased MMP-2 and MMP-9 levels at a lower concentration than did doxycycline | percent cytotoxicity (COLO 205 Cells; 5 μM): 25.9% | percent cytotoxicity (COLO 205 Cells; 10 μM): 38.9% | percent cytotoxicity (COLO 205 Cells; 20 μM): 37% | percent cytotoxicity (COLO 205 Cells; 50 μM): 86.7% | percent cytotoxicity (COLO 205 Cells; 100 μM): 86.7% | GI50 (TSU PR-1): 14.7 ± 2.64 µM | GI50 (ALVA 101): 6.82 ± 0.75 µM | cytotoxicity (DU-145 tumor cells; 20 μM): some cytotoxicity appearing after 72 hr | cytotoxicity (DU-145 tumor cells; 50 μM, over 72 hr): significant cytoxicity | GI50 (MAT LyLu): 5.2 ± 1.9 µM

SMILES: C[C@H]1c2cccc(O)c2C(=O)C2=C(O)[C@]3(O)C(=O)C(C(N)=O)=C(O)[C@@H](N(C)C)[C@@H]3[C@@H](O)[C@@H]21 [Doxycycline, 6α-deoxy-5-hydroxy-tetracycline, reference compound]
Percent Inhibition of invasive potential [1]: 12-79% | GI50 (TSU PR-1): 41 ± 11 µM | GI50 (ALVA 101): 36.6 ± 2.42 µM | GI50 (MAT LyLu): 20 ± 6.4 µM
